The IC50 is the point on the concentration scale where inhibition reaches its midpoint. Read a low IC50 as inhibition by little substance.

The structures appear in SMILES notation.

Our source for the IC50 values is BindingDB's records for patent US12497405 (Merck Sharp & Dohme, 2025).

In experiment [1] the target is T1, DNA polymerase catalytic subunit (Varicella-zoster virus (strain Dumas), UniProt P09252).
T1 sequence (P09252 whole entry): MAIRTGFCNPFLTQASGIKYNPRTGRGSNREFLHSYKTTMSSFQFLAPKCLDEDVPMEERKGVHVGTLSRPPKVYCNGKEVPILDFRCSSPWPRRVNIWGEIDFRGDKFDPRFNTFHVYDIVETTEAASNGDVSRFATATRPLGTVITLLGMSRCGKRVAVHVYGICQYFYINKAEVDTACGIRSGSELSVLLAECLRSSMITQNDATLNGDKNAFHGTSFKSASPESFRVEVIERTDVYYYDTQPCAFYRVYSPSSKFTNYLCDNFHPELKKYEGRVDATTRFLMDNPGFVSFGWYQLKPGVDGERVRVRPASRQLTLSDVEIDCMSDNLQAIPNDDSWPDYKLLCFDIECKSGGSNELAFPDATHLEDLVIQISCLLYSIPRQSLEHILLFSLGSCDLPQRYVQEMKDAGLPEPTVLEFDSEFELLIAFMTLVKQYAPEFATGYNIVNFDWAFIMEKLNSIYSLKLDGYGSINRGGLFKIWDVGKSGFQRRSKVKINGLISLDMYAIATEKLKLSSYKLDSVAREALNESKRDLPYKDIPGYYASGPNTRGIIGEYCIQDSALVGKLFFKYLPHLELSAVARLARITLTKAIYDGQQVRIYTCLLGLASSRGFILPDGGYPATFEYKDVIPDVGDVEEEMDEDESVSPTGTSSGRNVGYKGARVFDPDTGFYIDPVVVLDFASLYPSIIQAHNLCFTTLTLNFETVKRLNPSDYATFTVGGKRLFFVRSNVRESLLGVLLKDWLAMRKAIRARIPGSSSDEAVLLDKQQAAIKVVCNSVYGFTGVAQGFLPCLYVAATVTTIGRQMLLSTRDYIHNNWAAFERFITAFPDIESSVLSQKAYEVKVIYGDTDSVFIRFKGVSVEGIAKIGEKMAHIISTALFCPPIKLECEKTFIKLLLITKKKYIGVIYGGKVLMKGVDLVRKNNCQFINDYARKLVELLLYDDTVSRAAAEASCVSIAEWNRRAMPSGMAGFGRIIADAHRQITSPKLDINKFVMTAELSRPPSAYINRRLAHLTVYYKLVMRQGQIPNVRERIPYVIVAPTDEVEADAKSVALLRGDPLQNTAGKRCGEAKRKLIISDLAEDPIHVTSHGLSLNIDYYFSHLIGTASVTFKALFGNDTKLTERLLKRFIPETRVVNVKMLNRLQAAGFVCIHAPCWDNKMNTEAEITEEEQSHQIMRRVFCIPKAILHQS
As to the kind of experiment: CMV and VZV Polymerase Assays. As to the method:
(§1) Human cytomegalovirus and varicella zoster virus DNA polymerases were expressed via baculovirus vector in SF21 cells and purified. Heterodimeric nucleic acid substrate used in the herpesvirus polymerase reactions were generated by annealing a 59-mer template to a 17-mer digoxigenin-labeled primer. Polymerase (HCMV final concentration of 0.2 nM; VZV final concentration of 0.4 nM) was combined with an inhibitor compound or DMSO in assay buffer (10 mM HEPES, pH 7.5, 25 mM KCl, 25 mM NaCl, 5 mM MgCl2, 5% glycerol, 0.67 mg/ml bovine serum albumin, and 1 mM tris(2-carboxyethyl)phosphine)), and this mixture was pre-incubated for 30 minutes at room temperature in 384-well microtiter plates. The polymerization reaction was initiated by the addition of template/primer substrate (final concentration: 1.6 nM), and dNTPs (final concentration: 24 nM dCTP, 24 nMdGTP, 16 nM dATP, 16 nM dTTP, and 0.8 nM biotin-dUTP). After a 60 minute incubation period at 37° C., the reactions were terminated using quench buffer (25 mM HEPES pH 7.5, 100 mM NaCl, 0.25% Tween-20, 12 mM EDTA, and 1 mg/ml bovine serum albumin). Incorporation of biotinylated UTP was detected with 2.5-5 μg/mL anti-DIG AlphaLISA acceptor beads and 5-10 μg/mL streptavidin AlphaLISA donor beads (PerkinElmer). […]

The target in experiment [2] is T2, DNA polymerase catalytic subunit (Human cytomegalovirus (strain AD169), UniProt P08546).
T2 sequence (P08546 whole entry): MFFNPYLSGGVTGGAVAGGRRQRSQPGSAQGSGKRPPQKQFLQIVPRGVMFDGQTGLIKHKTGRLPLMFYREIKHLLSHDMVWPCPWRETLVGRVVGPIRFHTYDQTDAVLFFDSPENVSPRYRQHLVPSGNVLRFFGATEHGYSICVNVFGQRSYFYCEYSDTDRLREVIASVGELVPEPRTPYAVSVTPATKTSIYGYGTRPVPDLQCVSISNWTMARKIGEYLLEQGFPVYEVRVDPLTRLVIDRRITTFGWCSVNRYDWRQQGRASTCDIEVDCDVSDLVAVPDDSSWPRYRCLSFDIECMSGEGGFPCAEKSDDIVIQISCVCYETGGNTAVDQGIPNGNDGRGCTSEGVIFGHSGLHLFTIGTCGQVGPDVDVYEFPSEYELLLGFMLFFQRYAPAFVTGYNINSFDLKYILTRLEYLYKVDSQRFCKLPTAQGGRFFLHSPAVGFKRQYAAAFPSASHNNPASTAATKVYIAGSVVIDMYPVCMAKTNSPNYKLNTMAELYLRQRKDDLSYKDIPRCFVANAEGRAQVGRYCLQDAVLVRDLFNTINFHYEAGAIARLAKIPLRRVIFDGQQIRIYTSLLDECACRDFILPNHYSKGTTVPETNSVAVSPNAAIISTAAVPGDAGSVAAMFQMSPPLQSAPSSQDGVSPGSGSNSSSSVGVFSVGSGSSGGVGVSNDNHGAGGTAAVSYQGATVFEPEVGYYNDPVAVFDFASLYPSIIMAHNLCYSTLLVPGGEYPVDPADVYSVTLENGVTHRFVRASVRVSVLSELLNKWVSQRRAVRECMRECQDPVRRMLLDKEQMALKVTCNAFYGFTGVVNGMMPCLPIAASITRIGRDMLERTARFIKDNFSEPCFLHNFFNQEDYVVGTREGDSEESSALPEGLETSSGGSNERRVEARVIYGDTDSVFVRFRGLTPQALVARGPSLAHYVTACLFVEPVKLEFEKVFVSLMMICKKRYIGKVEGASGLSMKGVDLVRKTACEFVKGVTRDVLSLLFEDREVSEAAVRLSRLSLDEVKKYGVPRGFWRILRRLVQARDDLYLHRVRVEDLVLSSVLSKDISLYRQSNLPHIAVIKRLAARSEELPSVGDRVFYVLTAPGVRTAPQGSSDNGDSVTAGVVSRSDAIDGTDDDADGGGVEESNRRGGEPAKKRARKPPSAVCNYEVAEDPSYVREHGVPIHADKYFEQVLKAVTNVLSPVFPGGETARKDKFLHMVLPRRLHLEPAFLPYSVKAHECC
Put plainly: CMV and VZV Polymerase Assays. As to the method:
as §1

Regarding `O=C1OC[C@@H]2C[C@@H](Oc3cc4c(=O)n(Cc5ccc(Cl)cc5)cnc4nc3-c3cnco3)CCN12` [US12497405, Compound 37], the values for the IC50 in experiment [1] and in experiment [2] were 0.22 nM and 1.1 nM, respectively.
